From patent publication US7517654B2, “Peptide and a derivative thereof promoting cell adhesion and spreading” (Seoul National University Industry Foundation, priority 2004, dated 2009)

Tests used:
Assay type in all cases: cell-based, human
FAK = FAK phosphorylation assay (immunoblot, p-FAK/t-FAK); settings: for FAK phosphorylation level at Tyr-397: peptides 50 μg/60-mm dish
Description: The FAK phosphorylation assays were performed according to a method of Shang et al. (J. Biol. Chem., 276:33045, 2001). In detail, the HOK-16B cells were trypsinized, washed, and kept in suspension in serum-free KGM with 0.1% BSA for 1 h at 37° C. The 60-mm culture dishes were coated with laminin (5 μg/ml) or rLG3 protein (25 μg/ml) at 4° C. overnight. Peptides (50 μg/60-mm culture dish) were also coated on dishes by drying overnight. For the adherent FAK assay, 1×10^6 cells were plated onto uncoated, laminin-coated, rLG3 protein-coated, or various peptide-coated dishes and allowed to attach for 15, 30, or 60 min at 37° C. in an atmosphere of 5% CO2. At the end of the incubation, cells were washed with ice-cold PBS and lysed in RIPA buffer (50 mM Tris [pH 7.4], 150 mM NaCl, 1% Nonidet P-40, 0.5% Na-deoxycholate, 1 mM EDTA, 0.1% SDS, 2 mM Na3VO4, 1 mM glycerol phosphate, 1 mM PMSF, and protease inhibitor cocktail). Lysates were clarified by centrifugation at 12,000×g for 10 min at 4° C. to isolate cytosolic extracts.
The cytosolic extracts were denatured using SDS sample buffer [50 mM Tris-HCl (pH 6.8), 2% SDS, 10% glycerol, 0.1% bromophenol blue, 100 mM β-mercaptoethanol] and separated on an 8% SDS-polyacrylamide gel. Electrophoretic transfer of SDS-PAGE gel separated with protein to a nitrocellulose membrane was followed by immnoblotting with polyclonal anti-FAK antibodies to determine the total FAK level or immnoblotting with polyclonal anti-FAK [pY^397], [pY^407], [pY^576], [pY^577] or [pY^861] antibodies to determine the extent of tyrosine phosphorylation. The relative fold induction of FAK phosphorylation, defined as an increase in FAK phosphorylation of a sample relative to its corresponding background level (i.e., cells plated on plastic) was determined as follows: First, the densitomerty intensity of the phosphorylated FAK (p-FAK) and the total FAK (t-FAK) signals from the Western blots were measured with a LAS-1000plus (Fuji photo film, Japan). The ratio of p-FAK to t-FAK (p-FAK/t-FAK) for each sample was then calculated to correct for differences in protein loading. This ratio was normalized to the p-FAK/t-FAK ratio of the negative controls to obtain the relative fold induction of FAK phosphorylation.
HOK-16B cells isolated by trypsinization were suspended for 1 hr, and kept in suspension (Sus), or replated on 60-mm culture dishes coated with or without laminin (5 μg/ml). The cells were kept for 15, 30, or 60 min for being attached on plates, then cell lysates were analyzed by immunoblot analysis with anti-FAK p-Y397 antibody (Biosource, Camariollo, Calif.). […] This effect was observed within 15 min and peaked at 15 min after exposure to the laminin-coated plate (FIG. 8A).
Therefore, the extent of FAK phosphorylation at Tyr-397,-407,-576, -577, and -861 was investigated in HOK-16B cells cultured on plates coated with laminin (5 μg/ml), rLG3 (25 μg/ml), or peptides P1-P5 (50 μg/60-mm dish) for 15 min. The lysates were immnoblotted with polyclonal anti-FAK, p-Y397, p-Y407, p-Y576, p-Y577 or p-Y861 antibodies (Biosoucce, Camariollo, Calif.), and the total FAK level was detected using anti-FAK antibodies (Upstate Biotechnology, Lake Placid, N.Y. The ratio of p-FAK to t-FAK (p-FAK/t-FAK) for each sample was then calculated to correct for differences in protein loading. This ratio was normalized to the p-FAK/t-FAK ratio of the negative controls (cells on plates) to obtain the relative fold induction of FAK phosphorylation. As a result, the extent of FAK phosphorylation at Tyr-397 cultured on the laminin-coated or rLG3 protein-coated plates increased 16.2- and 8.2-fold compared with the untreated control (FIG. 8B).

HOK-16B cells [1] = assay: Cell spreading activity assay on coated plates; settings: HOK-16B cells, 10 μg/well truncated or Ala-substituted peptide coating, 1 h
Description: To identify spreading cells, attached cells were fixed with 10% formalin in PBS for 15 min, rinsed twice with PBS, and stained with 0.005% crystal violet for 1 h. The plates were then gently rinsed with DDW. To ensure a representative count, each plate was divided into quarters, two fields per quarter were photographed using an Olympus BX51 microscope at 100× magnification. Cells that had adopted a flattened, polygonal shape, with filopodia-and lamellipodia-like extensions were considered to be spreading cells. In contrast, cells that resisted being washed and remained tethered to the plate surface were considered to be non-spreading cells.
To examine the adhesion activity of peptide P4 in detail, the inventors examined whether the adherent cells were tethered to the substratum or spread over the substratum. The BSA and rLG3 were used as the negative control and positive control, respectively, the percentage of cells displaying a spreading morphology was quantified by dividing the number of spreading cells by the total number of bound cells.

HOK-16B cells [2] = assay: Cell adhesion assay on coated plates (crystal violet absorbance at 570 nm / cell counting); settings: HOK-16B cells, 10 μg/well truncated or Ala-substituted peptide coating, 1 h
Description: The cell adhesion assay was performed according to a method reported by Okazaki et al. (J. Biol. Chem., 277:37070, 2002). In detail, 24-well culture plates (Nunc, Roskilde, Denmark) were coated with various amounts of rLG proteins at 4° C. overnight. The peptides were also coated on plates by drying overnight. The substrate-coated on the plates were blocked by adding 1% heat-inactivated bovine serum albumin (BSA) in PBS for 1 h at 37° C. and washed twice with PBS. The cells in the Experimental Example 1, detached by 0.05% tyrpsin and 0.53 mM EDTA in PBS and resuspended in culture media, were added (1×10^5 cells/500 μl) to each plate and incubated for 1 h at 37° C. After incubation, unattached cells were removed by rinsing twice with PBS. The attached cells were fixed with 10% formalin in PBS for 15 min, rinsed twice with PBS, and stained with 0.5% crystal violet for 1 h. The plates were gently rinsed with DDW three times and lysed with 2% SDS for 5 min. Absorbance was measured at 570 nm in a Bio-Rad Model 550 microplate reader (BioRad).
The cell adhesion and spreading activities on peptide-coated plates were examined using HOK-16B cells by the same method as Experimental Example 2. 24-well plates were coated with 10, 20, 30, 40 and 50 μg/well peptides P1 to P5, respectively. HOK-16B cells were added to peptide-coated plates and cultured for 1 h in serum-free medium for 1 hr. After the unbound cells were washed off, adherent cells were fixed and stained with crystal violet, and then the stained cells were analyzed. Absorbance was measured at 570 nm in a microplate reader. BSA and the rLG3 were used as negative control and positive control, respectively.
It was observed that peptide P4 promotes strong cell adhesion and spreading activities and binds to integrin α3β1 in the Example 4. Therefore, to determine the biologically active core sequences in peptide P4, five synthetic peptides (P4 D-I to P4 D-V), which are C-terminal truncated peptides from the peptide P4, and six synthetic peptides (P4 D-N1 to P4 D-N6), which are N-terminal truncated peptides from the peptide P4 were prepared (FIG. 6A) and examined for HOK-16B cell adhesion and spreading activities on peptide-coated plates by the present inventors. 24-well plates were coated with 10 μg/well C-terminal truncated peptides or N-terminal truncated peptides, and HOK-16B cells were added to the plates, and then cultured in serum-free medium for 1 hr. After the unbound cells were washed off, the adherent cells were fixed to stain with crystal violet, and the stained cells were analyzed. Absorbance was measured at 570 nm in a microplate reader. Peptide P4 and BSA were used as the positive and negative controls, respectively.
24-well plates were coated with 10 μg/well peptides, and HOK-16B cells were added to the plates, and then cultured in serum-free medium for 1 hr. After the unbound cells were washed off, the adherent cells were fixed to stain with crystal violet, and the stained cells were analyzed. Peptide P4 and BSA were used as the positive and negative controls, respectively. The results were expressed as mean ±SD of the four independent experiments.

[3] = HOK-16B cells on coated dishes, laminin 5 μg/ml

| Substance | changes of the FAK phosphorylation levels at Tyr-407, -576 and -861 (FAK; HOK-16B cells on coated dishes, 15 min) | FAK phosphorylation level at Tyr-397 (FAK; [3]) | increase of FAK phosphorylation at Tyr-397 compared with the untreated control (FAK; HOK-16B cells, 15 min, laminin 5 μg/ml or rLG3 25 μg/ml coating, p-FAK/t-FAK normalized) | time of peak FAK phosphorylation at Tyr-397 after exposure to coated plate (FAK; laminin 5 μg/ml, 15, 30 or 60 min tested) | cell spreading activity compared to the peptide P4 control (HOK-16B cells [1]) | cell adhesion activity compared to the peptide P4 control (HOK-16B cells [2]) |
| --- | --- | --- | --- | --- | --- | --- |
| laminin [reference compound] | not observed | notably higher | 16.2 fold | 15 min | – | – |
| P4-S2: peptide P4 in which Ala substituted for Arg (PPFLMLLKGSTA) | – | significantly decreased | – | – | significantly inhibited | significantly inhibited |
| P4-S3: peptide P4 in which Ala substituted for both Lys and Arg (PPFLMLLAGSTA) | – | significantly decreased | – | – | significantly inhibited | significantly inhibited |
